# Experimental data from patent publication US7524849B2, “5-arylpyrimidines as anticancer agents” (Wyeth Holdings Corporation, priority 2003, dated 2009).
# pIC50: −log10 of the molar value.
# Key:
# COLO 205 cells = test: MTS cytotoxicity test with COLO 205 cells; format: cell-based, human; conditions: three days with compound
# Summary of the method: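 COLO 205 human colon carcinoma cells, 1000/well, exposed for three days at 37 °C to nine 2-fold dilutions, top final concentration typically 5 μM. MTS formazan absorbance normalised to a time-0 plate; IC50 taken as concentration halfway between untreated maximum and high-drug minimum.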
# KB cells = test: MTS cytotoxicity test with KB cells; format: cell-based, human; conditions: mean of 2 experiments
# Source text: (§1) Human cancer cell lines, unless otherwise noted, are obtained from the American Type Culture Collection (Rockville, Md.). The following drug-sensitive parental cell lines, and their derived drug-resistant counterparts, are obtained from the originators as listed: (a) S1 (parental line from a subclone of human colon carcinoma line LS174T) and derived S1-M1-3.2 (herein called S1-M1) which expresses the MXR drug transporter protein, are provided by Dr. L. Greenberger, Wyeth Research (Rabindran, S. K., He, H., Singh, M., Brown, E., Collins, K. I., Annable, T., and Greenberger, L. M. Reversal of a novel multidrug resistance mechanism in human colon carcinoma cells by fumitremorgin C. Cancer Res., 58: 5850-5858, 1998); (b) parental HL-60 human promyelocytic leukemia line and derived HL-60/ADR, which expresses the MRP1 drug transporter protein, are provided by Dr. M. Center, University of Kansas (McGrath, T., and Center, M. S. Adriamycin resistance in HL60 cells in the absence of detectable P-glycoprotein. Biochem. Biophys. […] J. Biol. Chem., 261: 7762-7770, 1986) via Dr. L. Greenberger, Wyeth Research.
# (§2) The assay, which is sold in kit form by Promega (Madison, Wis.; CellTiter 96 AQueous Non-Radioactive Cell Proliferation Assay), is based on the conversion by viable cells, but not by dead cells, of the tetrazolium salt, MTS (3-(4,5-dimethylthiazol-2-yl)-5-(3-carboxymethoxyphenyl)-2-(4-sulphophenyl)-2H-tetrazolium, inner salt), into a water-soluble colored formazan which is detected by spectrophotometry. Compounds are tested at nine concentrations, in order to determine IC50 values. For the test procedure, cells are harvested by trypsinization, washed, counted and distributed to wells of 96-well flat-bottom microtiter plates at 1000 cells per well in 200 μL of medium. In addition, one row of wells on a separate plate receives cells as above (“time 0” plate). All plates are incubated at 37° in humidified 5% CO2 in air for about 24 hr.
# (§3) On day 2, compounds for test are diluted and added to wells. Compounds are dissolved in DMSO at 10 mg/mL. For each compound, nine serial 2-fold dilutions are prepared in DMSO. Ten μL of each dilution in DMSO are transferred to 100 μL of medium, mixed well, and then 5 μL of this dilution are transferred in quadruplicate to wells containing cells. […] Plates are returned to the incubator for three days. At the time of drug addition to the experimental plates, the MTS assay is run on the “time 0” plate. This produces the “time 0 MTS value” which is related to the number of viable cells per well at the time of drug addition.
# (§4) After three days of culture with test compounds (day 5 overall), the MTS assay is done on all wells of the experimental plates. The absorbance values of the quadruplicate sample wells are averaged and divided by the average of the “time 0” values. […] The nine values for each compound are plotted against concentration, and the concentration that produces a relative color yield half way between the maximum and minimum is taken as the IC50 value.
# HL-60 cells = test: MTS cytotoxicity test with HL-60 cells; format: cell-based, human; conditions: mean of 2 experiments
# Source text: as §1, §2, §3, §4
# (§5) HL-60/ADR cells overexpress the multidrug resistance protein MRP1 which mediates resistance to some chemotherapeutics (Gottesman, M. M., Fojo, T., and Bates, S. E. Multidrug resistance in cancer: role of ATP-dependent transporters. Nature Rev. Cancer, 2: 48-58, 2002). The IC50 values of representative examples of this invention, as well as reference compounds, on HL-60/ADR are compared to values on the sensitive parental HL-60 line.
# HL-60/ADR cells = test: MTS cytotoxicity test with HL-60/ADR cells (MRP1); format: cell-based, human; conditions: for IC50: HL-60/ADR cells, mean of 2 experiments; for Ratio: IC50 on HL-60/ADR cells/IC50 on HL-60 cells
# Source text: as §1, §2, §3, §4, §5
# [1] = tested on: highly purified tubulin (tubulin heterodimer); test: Competitive binding test, [3H]colchicine; set-up: species or system bovine; conditions: competitor 100 μM, [3H]colchicine 50 nM, percent of binding to control without competitor
# Experimental: Medium is RPMI-1640 with L-glutamine, supplemented with 10% heat-inactivated fetal calf serum, 100 units/mL penicillin, and 100 μg/mL streptomycin (Gibco, Grand Island, N.Y.). Microtubule-associated protein (MAP)-rich tubulin, containing about 70% tubulin and 30% MAPs (#ML113), and highly purified tubulin (>99% pure, #TL238), both from bovine brain, are obtained from Cytoskeleton, Inc., Denver, Colo. PEM buffer (80 mM piperazine-N,N′-bis[2-ethanesulfonic acid], pH 6.9, 1 mM ethylene glycol-bis(β-aminoethyl ether)-N,N,N′,N′-tetraacetic acid, 1 mM magnesium chloride) and guanosine 5′-triphosphate (GTP) are also obtained from Cytoskeleton. […] [^3H]vinblastine, specific activity 9.60 Ci/mmol and MicroSpin G-50 columns are obtained from Amersham Biosciences (Piscataway, N.J.). […] Other reagents are obtained from Sigma (St. Louis, Mo.).
# The binding of examples of this invention to highly purified tubulin is studied by competitive inhibition methods.
# These solutions are incubated at 24° for 1 hr and then applied to MicroSpin G-50 columns which are centrifuged for 2 min at 3000 rpm in an Eppendorf 5415C microfuge. An aliquot of each column effluent (containing tubulin and bound radioligand) is mixed with scintillation fluid and counted in a liquid scintillation spectrometer. […] Quadruplicates are averaged, and the ability of the competitor to inhibit the binding of the radioligand is expressed as a percentage of control binding in the absence of any competitor.
structure (smiles),measurement,setting,value
"CNCCCOc1cc(F)c(-c2c(Cl)nc(-n3cccn3)nc2N[C@@H](C)C(F)(F)F)c(F)c1.Cl [Example 32a, 6-Chloro-5-{2,6-difluoro-4-[3-(methylamino)propoxy]phenyl}-2-(1H-pyrazol-1-yl)-N-[(1S)-2,2,2-trifluoro-1-methylethyl)pyrimidin-4-amine Hydrogen Chloride]",pIC50,"COLO 205 cells; Homo sapiens, 72 h",8.62
same,IC50,KB cells; Homo sapiens,2.4 nM
same,IC50,HL-60 cells; Homo sapiens,2.6 nM
same,IC50,"HL-60/ADR cells; Homo sapiens, HL60/ADR",2.2 nM
same,Ratio,HL-60/ADR cells,0.8
"CNCCCOc1cc(F)c(-c2c(Cl)nc(-c3cnccn3)nc2N[C@@H](C)C(F)(F)F)c(F)c1.Cl [Example 24a, 6-Chloro-5-{2,6-difluoro-4-[3-(methylamino)propoxy]phenyl}-2-pyrazin-2-yl-N-[(1S)-2,2,2-trifluoro-1-methylethyl]pyrimidin-4-amine hygrogen chloride]",pIC50,COLO 205 cells,8.05
same,IC50,KB cells,7 nM
same,IC50,HL-60 cells,6.6 nM
same,IC50,HL-60/ADR cells,6.3 nM
same,Ratio,HL-60/ADR cells,1.0
"CC[C@]1(O)C[C@H]2CN(CCc3c([nH]c4ccccc34)[C@@](C(=O)OC)(c3cc4c(cc3OC)N(C=O)[C@H]3[C@@](O)(C(=O)OC)[C@H](OC(C)=O)[C@]5(CC)C=CCN6CC[C@]43[C@@H]65)C2)C1 [Vincristine, reference compound]",pIC50,"COLO 205 cells; Homo sapiens, 72 h",8.59
same,IC50,KB cells; Homo sapiens,2.2 nM
same,IC50,HL-60 cells; Homo sapiens,2.5 nM
same,IC50,"HL-60/ADR cells; Homo sapiens, HL60/ADR",24 nM
same,Ratio,HL-60/ADR cells,9.6
same,"[3H]Colchicine binding, Mean",[1],99 % of control
"CNCCCOc1cc(F)c(-c2c(Cl)nc(-c3ccccn3)nc2N[C@@H](C)C(F)(F)F)c(F)c1.Cl [Example 29a, 6-Chloro-5-{2,6-difluoro-4-[3-(methylamino)propoxy]phenyl}-2-pyridin-2-yl-N-[(S)-2,2,2-trifluoro-1-methylethyl]pyrimidin-4-amine hydrogen chloride]",pIC50,"COLO 205 cells; Homo sapiens, 72 h",8.28
same,IC50,KB cells; Homo sapiens,6.2 nM
same,IC50,HL-60 cells; Homo sapiens,6.9 nM
same,IC50,"HL-60/ADR cells; Homo sapiens, HL60/ADR",6.8 nM
same,Ratio,HL-60/ADR cells,1.0
"CC(=O)O[C@H]1C(=O)[C@@]2(C)[C@H]([C@H](OC(=O)c3ccccc3)[C@]3(O)C[C@H](OC(=O)[C@H](O)[C@@H](NC(=O)c4ccccc4)c4ccccc4)C(C)=C1C3(C)C)[C@]1(OC(C)=O)CO[C@@H]1C[C@@H]2O [Paclitaxel, reference compound]",pIC50,"COLO 205 cells; Homo sapiens, 72 h",8.48
same,IC50,HL-60 cells; Homo sapiens,3 nM
same,IC50,"HL-60/ADR cells; Homo sapiens, HL60/ADR",3.5 nM
same,"[3H]Colchicine binding, Mean",[1],93 % of control
